Measured values published in ChEMBL document CHEMBL1201862, “PubChem BioAssay data set” (2004).
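Cultured in 96-well plates, cells were exposed to test compound for 48 hours across five concentrations. Here, GI50 denotes the concentration required for 50% inhibition of growth.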 The source made the active and inactive calls. Cut-off read from the data, not from the text of the source: active = GI50 up to about 1.1 µM and inactive = higher.

Tests used:
Assay in all cases: growth of human tumour cells (NCI), 48 h
A549 = system: A549
KM12 = system: KM12
SK-MEL-5 = system: SK-MEL-5
MCF7 = system: MCF7
K562 = system: K562
Hs-578T = system: Hs-578T
SN12C = system: SN12C
CAKI-1 = system: CAKI-1
NCI-H23 = system: NCI-H23
UACC-62 = system: UACC-62
PC-3 = system: PC-3
T47D = system: T47D
EKVX = system: EKVX
TK-10 = system: TK-10
CCRF-CEM = system: CCRF-CEM
SK-MEL-2 = system: SK-MEL-2
MDA-N = system: MDA-N
SNB-75 = system: SNB-75
UACC-257 = system: UACC-257
ACHN = system: ACHN

Measured: GI50

COc1ccc(/C=C2\N=C(SC)NC2=O)cc1
inactive: A549 > 100 µM | KM12 54.6 µM | SK-MEL-5 53.6 µM | MCF7 70.8 µM | K562 > 10 µM | Hs-578T 64.6 µM | SN12C > 100 µM | CAKI-1 56 µM | NCI-H23 67 µM | UACC-62 70.3 µM | PC-3 67.1 µM | T47D 27.8 µM | EKVX 30.4 µM | TK-10 86.1 µM | CCRF-CEM 81.8 µM | SK-MEL-2 > 100 µM | MDA-N 83.6 µM | SNB-75 27.2 µM

N#CC1=C2Sc3ccccc3N2[C@H](c2ccccc2)[C@H]2COC(=O)[C@@H]12
inactive: A549 > 100 µM | KM12 63.2 µM | UACC-257 > 100 µM | SK-MEL-5 > 100 µM | MCF7 31 µM | Hs-578T > 100 µM | ACHN > 100 µM | CAKI-1 17.5 µM | NCI-H23 77.3 µM | UACC-62 67.1 µM | PC-3 > 100 µM | T47D 35.6 µM | EKVX > 100 µM | TK-10 38.9 µM | CCRF-CEM 7.45 µM | SK-MEL-2 48 µM | MDA-N > 100 µM | SNB-75 21.6 µM

O=C1c2cccc3cc([N+](=O)[O-])cc(c23)C(=O)N1c1ccc(OCCN2CCCC2)cc1
inactive: A549 3.3 µM | KM12 22.2 µM | UACC-257 16.8 µM | SK-MEL-5 13.9 µM | MCF7 7.94 µM | Hs-578T 24.9 µM | SN12C > 100 µM | ACHN 10 µM | CAKI-1 > 100 µM | NCI-H23 17.6 µM | PC-3 22.2 µM | T47D > 100 µM | EKVX 21.6 µM | TK-10 22.4 µM | CCRF-CEM 18.6 µM | SK-MEL-2 24.5 µM | MDA-N 30.8 µM | SNB-75 22 µM

CC(=O)O[C@H]1CCC2[C@@H]3CCC4Cc5nc6c(nc5C[C@]4(C)C3CC[C@@]21C)CC1CC[C@@H]2C(CC[C@@]3(C)C2CC[C@@H]3C(C)CCCC(C)C)[C@@]1(C)C6 (some centres undefined)
inactive: A549 > 100 µM | KM12 > 100 µM | UACC-257 > 100 µM | SK-MEL-5 > 100 µM | MCF7 > 100 µM | K562 > 100 µM | Hs-578T > 100 µM | SN12C > 100 µM | ACHN > 100 µM | NCI-H23 > 100 µM | UACC-62 > 100 µM | PC-3 > 100 µM | T47D > 100 µM | EKVX > 100 µM | TK-10 > 100 µM | CCRF-CEM > 100 µM | SK-MEL-2 > 100 µM | MDA-N > 100 µM | SNB-75 > 100 µM

CCOC(=O)Nn1cnnc1Cc1ccccc1
inactive: A549 > 100 µM | KM12 > 100 µM | UACC-257 > 100 µM | SK-MEL-5 > 100 µM | MCF7 > 100 µM | K562 > 100 µM | Hs-578T 20 µM | SN12C > 100 µM | ACHN > 100 µM | CAKI-1 > 100 µM | NCI-H23 > 100 µM | UACC-62 > 100 µM | PC-3 > 100 µM | T47D > 100 µM | EKVX > 100 µM | TK-10 > 100 µM | CCRF-CEM > 100 µM | SK-MEL-2 > 100 µM | MDA-N > 100 µM

O=c1c(-c2ccccc2Cl)coc2cc(F)ccc12
inactive: A549 23.7 µM | KM12 21.5 µM | UACC-257 23.9 µM | SK-MEL-5 27.3 µM | MCF7 21.7 µM | Hs-578T 28.4 µM | SN12C 53.2 µM | ACHN > 100 µM | CAKI-1 29.1 µM | NCI-H23 37.3 µM | UACC-62 18.2 µM | PC-3 > 100 µM | T47D 45.1 µM | EKVX 52.6 µM | TK-10 47.9 µM | CCRF-CEM 24.3 µM | SK-MEL-2 66.4 µM | MDA-N 3.79 µM | SNB-75 17.5 µM

CC(=O)OCC1OC(n2c3c(cc(C#N)c2=O)CCCCCC3)C(OC(C)=O)C(OC(C)=O)C1OC(C)=O (centres undefined)
inactive: A549 > 100 µM | KM12 > 100 µM | UACC-257 > 100 µM | SK-MEL-5 > 100 µM | MCF7 > 100 µM | K562 > 100 µM | Hs-578T > 100 µM | SN12C > 100 µM | ACHN > 100 µM | CAKI-1 > 100 µM | NCI-H23 > 100 µM | UACC-62 > 100 µM | PC-3 > 100 µM | T47D 22.7 µM | TK-10 > 100 µM | CCRF-CEM > 100 µM | SK-MEL-2 > 100 µM | MDA-N > 100 µM | SNB-75 18.4 µM

CC(=O)N1N=C(c2ccc3ccccc3c2O)CC1C(=O)c1ccco1 (centres undefined)
inactive: A549 27.9 µM | KM12 10.8 µM | UACC-257 32.1 µM | SK-MEL-5 25 µM | MCF7 21.4 µM | K562 11.6 µM | Hs-578T 21.8 µM | SN12C 41.2 µM | ACHN 19.2 µM | CAKI-1 44.1 µM | NCI-H23 27.9 µM | UACC-62 17 µM | PC-3 22.5 µM | T47D 40.6 µM | TK-10 30.3 µM | CCRF-CEM 6.24 µM | SK-MEL-2 18.7 µM | MDA-N 20.6 µM | SNB-75 14.3 µM
